Data from patent US20030096237A1, “Determination of the ability of patients to respond to a tumor treatment” (priority 2000, published 2003).

Test system: CNCM I-2546
Assay: oligonucleotide array analysis of IFN-α modulated gene expression
Format: cell-based, human
Design: key to nAD M94880 mhc class i (hla-a*8001): normalized average difference between perfect and mismatch probeset signals
Method: All these cell lines were cultured in RPMI medium supplemented with 10% FCS, glutamine (2 mM), sodium pyruvate (1 mM), non-essential amino acids and HEPES buffer (10 mM) (all from GIBCO Life Sciences, Paisley, UK). When confluent, the cells were passaged by trypsinization.
Cultured melanoma cells were harvested by scraping and total cellular RNA was extracted. 10 μg from each sample were used directly as templates for cDNA synthesis using a commercial kit (Roche Molecular Biochemicals, Rotkreuz, Switzerland). The T7 promoter sequence incorporated into the cDNA synthesis primer allowed template amplification and biotin labeling by in vitro transcription using a commercial kit (Affymetrix, Santa Clara, Calif.). After alkaline heat fragmentation […] was hybridised to the array (Affymetrix, Santa Clara, Calif.) and all subsequent steps were performed following standard procedures as supplied with the arrays. Raw data were collected with a confocal laser scanner (Hewlett Packard, Palo Alto, Calif.) using GeneChip software v3.1 (Affymetrix, Santa Clara, Calif.).
Raw data were normalized based on the total chip signal obtained upon hybridisation of ME15 cell line cDNA. This array was selected because: i) the 5′/3′ intensity ratio of control genes was smaller than 3; ii)>25% of the genes are called “present” by Genechip; iii) the image appearance is homogeneous with low background and no sign of mechanical chip damage.
The normalized average difference (nAD) between the signals of the perfect and of the mismatch probesets for each gene was used as the expression level of a given gene. At least one nAD value in a pairwise comparison of data has to exceed 50 to be included. Based on nAD, change factors related to IFN-α exposure were also calculated. Negative nAD values were set to 20 in order to avoid the calculation of artificially high modifications. In order to exclude artefacts, only genes with robust change factors, greater than 2-fold, were included in the analysis. […] Genes were clustered according to their mode of regulation.
Total cellular RNA was extracted from the sensitive and resistant melanoma cell lines identified above, reverse transcribed and processed for hybridization to an oligonucleotide array (Hu6800FL, PN 900183) containing probe sets derived from 7000 full-length human genes. Expression levels for each gene were calculated as normalized average difference (nAD, see materials and methods).
Patterns of genes expressed in IFN-α sensitive and resistant melanoma cell lines were investigated upon 48 hour culture in the presence of IFN-α. CNCM I-2546 and CNCM I-2545 were studied in detail.
In Table 2 below, CNCM I-2546 and CNCM I-2545 cultured for 48 hours in the absence or in the presence of 100 U/ml IFN-α were used to assay cytokine modulated gene expression as matched with data obtained in fibrosarcoma cells. This analysis yielded six clusters of genes. […] Data are presented as average difference of signal intensity between match and mismatch probesets.
In Table 3 below, CNCM I-2546 and CNCM I-2545 cell lines cultured for 48 hours in the absence or in the presence of 100 U/ml IFN-α were used to identify novel cytokine induced genes whose expression was not found to be modulated in fibrosarcoma cells. Cluster 1 includes genes inducible in the CNCM I-2546 sensitive but not in the CNCM I-2545 resistant cell line. Cluster 2 comprises genes inducible in both lines. Data are presented as average difference of signal intensity between match and mismatch probesets.

[1] = CNCM I-2546 (+) IFN-α 100 U/ml 48 hours, (−) 0
[2] = CNCM I-2546 (+) IFN-α 100 U/ml 48 hours, (−) 24
[3] = CNCM I-2546 (+) IFN-α 100 U/ml 48 hours, (−) 43
[4] = CNCM I-2546 (+) IFN-α 100 U/ml 48 hours, (−) 55
[5] = CNCM I-2546 (+) IFN-α 100 U/ml 48 hours, (−) 77
[6] = CNCM I-2546 (+) IFN-α 100 U/ml 48 hours, (−) 107
[7] = CNCM I-2546 (+) IFN-α 100 U/ml 48 hours, (−) 110
[8] = CNCM I-2546 (+) IFN-α 100 U/ml 48 hours, (−) 150

IFN-α
nAD L37043 casein kinase i epsilon [1]: 441
nAD L40387 thyroid receptor interactor (trip14) [1]: 85
nAD U51127 interferon regulatory factor 5 (CNCM I-2546 (+) IFN-α 100 U/ml 48 hours, (−) 3): 116
nAD Z56281 interferon regulatory factor 3 (CNCM I-2546 (+) IFN-α 100 U/ml 48 hours, (−) 12): 136
nAD M98343 amplaxin (ems1) (CNCM I-2546 (+) IFN-α 100 U/ml 48 hours, (−) 15): 141
nAD J03909 gamma-interferon-inducible protein (ip-30) (CNCM I-2546 (+) IFN-α 100 U/ml 48 hours, (−) 18): 57
nAD D32050 alanyl-trna synthetase (CNCM I-2546 (+) IFN-α 100 U/ml 48 hours, (−) 21): 427
nAD M60784 ul snrnp-specific protein [2]: 216
nAD X57351 1-8d gene from interferon-inducible gene family [2]: 297
nAD D28137 bst-2 (CNCM I-2546 (+) IFN-α 100 U/ml 48 hours, (−) 28): 305
nAD S81914 iex-1 = radiation-inducible immediate-early gene (CNCM I-2546 (+) IFN-α 100 U/ml 48 hours, (−) 31): 312
nAD X96401 rox protein (CNCM I-2546 (+) IFN-α 100 U/ml 48 hours, (−) 34): 143
nAD M79462 pml-1 [3]: 1
nAD U22970 16-jun gene, interferon-inducible peptide (6-16) [3]: 2363
nAD L42243 ifnar2 gene (interferon receptor) (CNCM I-2546 (+) IFN-α 100 U/ml 48 hours, (−) 46): −4
nAD U52513 rig-g (CNCM I-2546 (+) IFN-α 100 U/ml 48 hours, (−) 49): 96
nAD K01900 lymphocyte interferon alpha type 201 [4]: 85
nAD M19650 2′,3′-cyclic nucleotide 3prime-phosphodiesterase [4]: 269
nAD X95325 dna binding protein a variant (CNCM I-2546 (+) IFN-α 100 U/ml 48 hours, (−) 58): 375
nAD X15949 interferon regulatory factor-2 (irf-2) (CNCM I-2546 (+) IFN-α 100 U/ml 48 hours, (−) 67): 11
nAD Z26491 gene catechol o-methyltransferase (CNCM I-2546 (+) IFN-α 100 U/ml 48 hours, (−) 73): 337
nAD U69126 fuse binding protein 2 (fbp2) [5]: 302
nAD X76538 mpv17 [5]: 313
nAD U50327 protein kinase c substrate 80k-h gene (prkcsh) (CNCM I-2546 (+) IFN-α 100 U/ml 48 hours, (−) 80): 312
nAD U09579 melanoma differentiation associated (mda-6) (CNCM I-2546 (+) IFN-α 100 U/ml 48 hours, (−) 83): 361
nAD U70063 human acid ceramidase (CNCM I-2546 (+) IFN-α 100 U/ml 48 hours, (−) 86): 221
nAD Y00264 amyloid a4 precursor (CNCM I-2546 (+) IFN-α 100 U/ml 48 hours, (−) 89): 304
nAD L35249 vacuolar h + -atpase mr 56,000 subunit (ho57) (CNCM I-2546 (+) IFN-α 100 U/ml 48 hours, (−) 92): 227
nAD U41515 dss1 (CNCM I-2546 (+) IFN-α 100 U/ml 48 hours, (−) 104): 51
nAD U18018 ela enhancer binding protein (ela-f) [6]: 340
nAD X04412 plasma gelsolin [6]: 372
nAD D50914 EST [7]: 359
nAD U65579 mitochondrial nadh dehydrogenase-ubiquinone [7]: 377
nAD U72206 guanine nucleotide regulatory factor (lfp40) (CNCM I-2546 (+) IFN-α 100 U/ml 48 hours, (−) 113): 459
nAD D78132 rheb gene, ras-related gtp binding protein gene (CNCM I-2546 (+) IFN-α 100 U/ml 48 hours, (−) 119): 307
nAD X70848 protein phosphatase 1, catalytic subunit (CNCM I-2546 (+) IFN-α 100 U/ml 48 hours, (−) 122): 370
nAD M31013 nonmuscle myosin heavy chain (nmhc) (CNCM I-2546 (+) IFN-α 100 U/ml 48 hours, (−) 132): 441
nAD J00212 leukocyte interferon (ifn-alpha) (CNCM I-2546 (+) IFN-α 100 U/ml 48 hours, (−) 138): 49
nAD U91316 acyl-coa thioester hydrolase (CNCM I-2546 (+) IFN-α 100 U/ml 48 hours, (−) 141): 706
nAD D49824 hla-b null allele (CNCM I-2546 (+) IFN-α 100 U/ml 48 hours, (−) 144): 925
nAD HG2917 major histocompatibility complex, class i, e (CNCM I-2546 (+) IFN-α 100 U/ml 48 hours, (−) 147): 813
nAD D21235 hhr23a protein [8]: 582
nAD U61263 acetolactate synthase homolog [8]: 464
nAD M65028 heterogeneous nuclear ribonucleoprotein a/b (CNCM I-2546 (+) IFN-α 100 U/ml 48 hours, (−) 153): 326
nAD HG658 major histocompatibility complex, class 1 c (CNCM I-2546 (+) IFN-α 100 U/ml 48 hours, (−) 156): 1692
nAD J04182 lysosomal membrane glycoprotein-1 (lamp1) (CNCM I-2546 (+) IFN-α 100 U/ml 48 hours, (−) 168): 452
nAD L07633 interferon-gamma (CNCM I-2546 (+) IFN-α 100 U/ml 48 hours, (−) 184): 463
nAD U18009 chromosome 17q21 clone lf113 (CNCM I-2546 (+) IFN-α 100 U/ml 48 hours, (−) 187): 735
nAD U47025 fetal brain glycogen phosphorylase b (CNCM I-2546 (+) IFN-α 100 U/ml 48 hours, (−) 193): 924
nAD M94880 mhc class i (hla-a*8001) (CNCM I-2546 (+) IFN-α 100 U/ml 48 hours, (−) 202): 932
nAD J00105 beta-2 microglobulin gene (CNCM I-2546 (+) IFN-α 100 U/ml 48 hours, (−) 248): 1453
nAD Z47055 farnesyl pyrophosphate synthetase like (CNCM I-2546 (+) IFN-α 100 U/ml 48 hours, (−) 263): 529
nAD U78525 human eukaryotic translation initiation factor (eif3) (CNCM I-2546 (+) IFN-α 100 U/ml 48 hours, (−) 275): 589
nAD U65932 extracellular matrix protein 1 (ecm1) (CNCM I-2546 (+) IFN-α 100 U/ml 48 hours, (−) 300): 907
nAD J04444 cytochrome c-1 gene (CNCM I-2546 (+) IFN-α 100 U/ml 48 hours, (−) 309): 1286
nAD HG1612 macmarcks (CNCM I-2546 (+) IFN-α 100 U/ml 48 hours, (−) 401): 1440
nAD X90846 mixed lineage kinase 2 (CNCM I-2546 (+) IFN-α 100 U/ml 48 hours, (−) 425): 173
nAD M34338 spermidine synthase (CNCM I-2546 (+) IFN-α 100 U/ml 48 hours, (−) 429): 1413
nAD L13210 mac-2 binding protein (CNCM I-2546 (+) IFN-α 100 U/ml 48 hours, (−) 444): 2016
nAD K03515 neuroleukin (CNCM I-2546 (+) IFN-α 100 U/ml 48 hours, (−) 487): 2126
nAD M30818 interferon-induced cellular resistance mediator protein (CNCM I-2546 (+) IFN-α 100 U/ml 48 hours, (−) 756): 155
nAD U72882 interferon-induced leucine zipper protein (ifp35) (CNCM I-2546 (+) IFN-α 100 U/ml 48 hours, (−) −9): 502
nAD U53830 interferon regulatory factor 7a (CNCM I-2546 (+) IFN-α 100 U/ml 48 hours, (−) −31): 237
nAD M97935 transcription factor isgf-3 (CNCM I-2546 (+) IFN-α 100 U/ml 48 hours, (−) −37): 296
nAD X57522 ring4 cdna (CNCM I-2546 (+) IFN-α 100 U/ml 48 hours, (−) −49): 97
nAD X07730 prostate specific antigen (CNCM I-2546 (+) IFN-α 100 U/ml 48 hours, (−) −64): 132
nAD U50648 interferon-inducible rna-dependent protein kinase (pkr) (CNCM I-2546 (+) IFN-α 100 U/ml 48 hours, (−) −70): 71
nAD U01824 glutamate/aspartate transporter (CNCM I-2546 (+) IFN-α 100 U/ml 48 hours, (−) −73): 91
nAD J04164 interferon-inducible protein 27-sep (CNCM I-2546 (+) IFN-α 100 U/ml 48 hours, (−) −89): 2066
nAD M92642 alpha-1 type xvi collagen (col16a1) (CNCM I-2546 (+) IFN-α 100 U/ml 48 hours, (−) −147): −133
nAD M13755 interferon-induced 17-kda/15-kda protein (CNCM I-2546 (+) IFN-α 100 U/ml 48 hours, (−) −181): 716
nAD X67325 p27 (CNCM I-2546 (+) IFN-α 100 U/ml 48 hours, (−) −211): 410
change factor (CF) D21235 hhr23a protein (CNCM I-2546, IFN-α 100 U/ml 48 hours): 2.88
